Laboratory results published in publication PMC11990301, “Lipidated DAPEG Polymers as a Non-Toxic Transfection Agent—Influence of Fatty Acid Side Chain on Transfection Efficacy” (Molecules, 2025).

Legend:
[1] = Dynamic light scattering (DLS) particle size of compounds and compound-pmaxGFP complexes; assay type: physicochemical; conditions: 25 °C, n = 3; for hydrodynamic diameters, pMAXGFP (-) / PDI (polydispersity index), pMAXGFP (-): compound alone without plasmid, in water; for hydrodynamic diameters, pMAXGFP (-): 2.5 mg/mL as printed, 10 s runs, Litesizer DIA 500, mean ± SD; for PDI (polydispersity index), pMAXGFP (-) / PDI (polydispersity index), pMAXGFP (+) / hydrodynamic diameters, pMAXGFP (+): mean ± SD; for PDI (polydispersity index), pMAXGFP (+) / hydrodynamic diameters, pMAXGFP (+): compound-DNA plasmid complex, N/P 1.5/1, in water
Procedure: Dynamic light scattering (DLS) measurements were performed using the Litesizer DIA 500 (Anton Par, Ostfildern-Scharnhausen, Germany). The concentration of the compounds in water was 2.5 mg/mL, with the inclusion of a DNA plasmid to maintain a charge-to-ratio of 1.5/1 N/P. For system 1:1.5, the concentration of each compound was 0.61 µM; for 3:1–1.21 µM; for 9:1–3.64 µM. The DNA plasmid concentration remains constant and equal at 0.46 nM. The particle size series mode was used in a cuvette with a volume of […]. Each run was recorded at 25 °C for 10 s.

[2] = test system: spheroids of HEK-293T cells; assay: Viability in 3D model, CellTiter Glo 3D (ATP); assay type: cell-based; conditions: HEK-293T spheroids, 24 h incubation, tested 0, 1, 2, 5, 10, 20 and 50 µM, CellTiter Glo 3D luminescence; n = 3
Procedure: (§1) The HEK-293T cell line was cultured using both 2D and 3D techniques. The non-adherent method of forming spheroids was used. Cells (750 cells per well) were seeded in a 96-well U-shaped plate BIOFLOAT (Sarstedt, Nümbrecht, Germany). The HEK-293T cells were cultured at 37 °C in 5% CO2 in Dulbecco’s modified Eagle medium (DMEM; high glucose) supplemented with 10% fetal bovine serum (FBS) and 1% penicillin–streptomycin solution containing 100 units of penicillin and 100 µg/mL of streptomycin. After three days of culturing, the spheroids were formed and ready for further experiments.
After culturing for 72 h, spheroids of HEK-293T cells were incubated with increasing amounts of the appropriate compounds (0, 1, 2, 5, 10, 20, and 50 µM) in the medium described above at 37 °C with 5% CO2. After 24 h, the plate was incubated at room temperature (RT) for 30 min, followed by the addition of 100 μL of CellTiter Glo 3D Cell Viability Assay reagent (Promega, Fitchburg, WI, USA). The plate was then covered from light and shaken for 30 min. Next, the contents of each well were transferred to a white flat bottom plate (Nunc A/S, Thermo Fisher, Odense, Denmark) and luminescence was read at 560 nm using the CLARIOstar (BMG Labtech, Ortenberg, Germany).

[3] = test system: HEK-293T cell line (spheroids); assay: Transfection efficacy of GFP plasmid (pmaxGFP) in 3D model; assay type: cell-based; conditions: HEK-293T spheroids
Procedure: as §1
Cells were cultured for 72 h under the conditions described above. Mixtures of the selected compounds and pmaxGFP plasmid in N/P ratios (charge peptidomimetic/charge pmaxGFP) of 1.5, 3:1, and 9:1 were incubated for 30 min and used immediately. An appropriate control with plasmid was employed. To each well with spheroids, 10 µL of the mixture described above was added in triplicate up to 90 µL of the full medium. The plate was then incubated at 37 °C with 5% CO2 for 5 h, washed (3 × medium), and cultured for another 72 h. After this process, the cells were inspected under a fluorescent microscope (Olympus IX51 fluorescence microscope (Olympus, Tokyo, Japan)). The molar concentration of particular components was equal to, for system 1:1.5, the concentration of each compound at 0.61 µM; for 3:1–1.21 µM; for 9:1–3.64 µM. The DNA plasmid concentration remains constant and equal at 0.46 nM.

[4] = Complex stability assessment by UV spectra (Nanodrop); assay type: physicochemical; conditions: Nanodrop UV-Vis, time points 0, 0.5, 1, 2.5 and 5 h, transfection buffer and concentrations (Figure S2)
Procedure: The analysis of all obtained complexes was conducted using a Nanodrop 2000c UV-Vis spectrophotometer (Thermo Scientific, Waltham, MA, USA) at designated time points from 0 to 5 h (0, 0.5, 1, 2.5, and 5). The concentration of the individual components (DNA and the compound) was used as a reference. The concentration of the complexes remained constant in relation to the transfection experiments.

For “C2H3O-O2Oc-[Dap(GO2)]8-O2Oc-NH2 [compound 1]”, the “hydrodynamic diameters, pMAXGFP (-)” value [1] was 309,0 ± 56,2 nm, the “PDI (polydispersity index), pMAXGFP (-)” value [1] was 25,5 ± 2,9% and the “PDI (polydispersity index), pMAXGFP (+)” value [1] was 30,1 ± 1,7%. For the same substance, the “hydrodynamic diameters, pMAXGFP (+)” value [1] was 5580,7 ± 321,2 nm, the “concentration up to which viability is not suppressed compared to non-treated cells (3D spheroids, ATP)” value [2] was “up to 5 µM” and the “average fluorescence of spheroids (GFP production), N/P ratio 1.5:1” value ([3]; compound 0.61 µM, plasmid 0.46 nM, 5 h incubation then 72 h culture, mean, n = 3) was roughly 150 arbitrary units. The “average fluorescence of spheroids (GFP production), N/P ratio 3:1” value ([3]; compound 1.21 µM, plasmid 0.46 nM, 5 h incubation then 72 h culture, mean, n = 3) was “around 200 arbitrary units” and the “transfection efficacy ranking (GFP fluorescence), N/P ratio 9:1” value ([3]; compound 3.64 µM, plasmid 0.46 nM, 5 h incubation then 72 h culture) was “superior fluorescence”.
In the case of “C4H7O-O2Oc-[Dap(GO2)]8-O2Oc-NH2 [compound 2]”, the “hydrodynamic diameters, pMAXGFP (-)” value [1] is reported as 337,2 ± 28,6 nm, the “PDI (polydispersity index), pMAXGFP (-)” value [1] is reported as 27,8 ± 1,5% and the “PDI (polydispersity index), pMAXGFP (+)” value [1] is reported as 30,6 ± 2,5%. The “hydrodynamic diameters, pMAXGFP (+)” value [1] was 4761,0 ± 190,1 nm.
With “C6H11O-O2Oc-[Dap(GO2)]8-O2Oc-NH2 [compound 3]” the “hydrodynamic diameters, pMAXGFP (-)” value [1] was 599,5 ± 80,8 nm, the “PDI (polydispersity index), pMAXGFP (-)” value [1] was 23,5 ± 2,4% and the “PDI (polydispersity index), pMAXGFP (+)” value [1] was 30,7 ± 2,6%. For the same substance, the “hydrodynamic diameters, pMAXGFP (+)” value [1] was 3006,0 ± 133,9 nm.
In the case of “C8H15O-O2Oc-[Dap(GO2)]8-O2Oc-NH2 [compound 4]”, the “hydrodynamic diameters, pMAXGFP (-)” value [1] is reported as 508,9 ± 62,2 nm, the “PDI (polydispersity index), pMAXGFP (-)” value [1] is reported as 24,4 ± 2,3% and the “PDI (polydispersity index), pMAXGFP (+)” value [1] is reported as 29,4 ± 2,5%. The “hydrodynamic diameters, pMAXGFP (+)” value [1] was 3446,7 ± 208,5 nm and the “stability of compound and compound-DNA complex: change of UV spectra over time” value [4] was “do not show significant changes over time”.
In the case of “C10H19O-O2Oc-[Dap(GO2)]8-O2Oc-NH2 [compound 5]”, the “hydrodynamic diameters, pMAXGFP (-)” value [1] is reported as 240,6 ± 36,9 nm, the “PDI (polydispersity index), pMAXGFP (-)” value [1] is reported as 24,9 ± 2,2% and the “PDI (polydispersity index), pMAXGFP (+)” value [1] is reported as 34,3 ± 4,2%. For the same substance, the “hydrodynamic diameters, pMAXGFP (+)” value [1] was 4605,7 ± 90,9 nm.
With “C12H23O-O2Oc-[Dap(GO2)]8-O2Oc-NH2 [compound 6]” the “hydrodynamic diameters, pMAXGFP (-)” value [1] was 337,4 ± 17,7 nm, the “PDI (polydispersity index), pMAXGFP (-)” value [1] was 23,2 ± 2,8% and the “PDI (polydispersity index), pMAXGFP (+)” value [1] was 24,2 ± 1,6%. The “hydrodynamic diameters, pMAXGFP (+)” value [1] was 283,7 ± 5,9 nm.
In the case of “C14H27O-O2Oc-[Dap(GO2)]8-O2Oc-NH2 [compound 7]”, the “hydrodynamic diameters, pMAXGFP (-)” value [1] is reported as 373,5 ± 59,7 nm, the “PDI (polydispersity index), pMAXGFP (-)” value [1] is reported as 25,6 ± 3,2% and the “PDI (polydispersity index), pMAXGFP (+)” value [1] is reported as 21,2 ± 2,4%. The “hydrodynamic diameters, pMAXGFP (+)” value [1] was 135,0 ± 3,2 nm.
For “C16H31O-O2Oc-[Dap(GO2)]8-O2Oc-NH2 [compound 8]”, the “hydrodynamic diameters, pMAXGFP (-)” value [1] was 517,6 ± 63,3 nm, the “PDI (polydispersity index), pMAXGFP (-)” value [1] was 24,8 ± 1,9% and the “PDI (polydispersity index), pMAXGFP (+)” value [1] was 26,3 ± 2,9%. For the same substance, the “hydrodynamic diameters, pMAXGFP (+)” value [1] was 308,7 ± 22,7 nm and the “transfection efficacy ranking (GFP fluorescence), N/P ratio 1.5:1” value ([3]; compound 0.61 µM, plasmid 0.46 nM, 5 h incubation then 72 h culture) was “greatest fluorescence”.
In the case of “H-O2Oc-[Dap(GO2)]8-O2Oc-NH2 [1a, reference compound]”, the “hydrodynamic diameters, pMAXGFP (-)” value [1] is reported as 329,1 ± 39,3 nm, the “PDI (polydispersity index), pMAXGFP (-)” value [1] is reported as 18,3 ± 1,5% and the “PDI (polydispersity index), pMAXGFP (+)” value [1] is reported as 29,9 ± 2,8%. For the same substance, the “hydrodynamic diameters, pMAXGFP (+)” value [1] was 2235,3 ± 48,0 nm and the “transfection efficacy ranking across all N/P series (1.5:1, 3:1, 9:1)” value ([3]; pmaxGFP) was “lowest in each series”.
